# Results published in patent US10071244B2, “Thoracoscopic electroporation device with a suction head and with needle electrodes” (UNIVERSITY COLLEGE CORK—NATIONAL UNIVERSITY OF IRELAND, CORK, priority 2012, dated 2018).
# Tested on: tumour tissue
# Assay: Evans Blue perfusion test in tumour-bearing mouse
# Assay type: in vivo
# Excerpt: FIG. 53 illustrates the result of an Evans Blue perfusion test;
# Perfusion • A. One of the physiological impediments reducing the efficacy of chemotherapy relates to the poor diffusion of the drug from the capillaries through to the interstitial spaces surrounding the tumour cells. Poor lymphatic drainage and an irregular vasculature leads to the tumour interstitial pressure increasing with time as the tumour grows. This positive pressure is the opposite of normal tissue where a slightly negative interstitial pressure allows for convection of molecules across the capillaries. See FIG. 51 in which the X-axis represents the tumour volume in cm^3, Y-axis represents tumour interstitial pressure readings in mmHg. Each dot represents one TIP reading at a given tumour volume. Linear line represents correlation coefficients between tumour volume and TIP. • B. The positive pressure within the tumour tissue can be immediately negated through the placement of a vacuum directly on the tumour tissue. […] This facilitates better drug perfusion throughout the tumour interstitial spaces (between the cells) by allowing convection of macromolecules from the capilliaries to the […]. • C. This correction allows for perfusion of the chemotherapy from the capillaries into the tumour tissue. […]
compound,measurement,setting,value
Cc1cc(-c2ccc(/N=N/c3ccc4c(S(=O)(=O)O)cc(S(=O)(=O)O)c(N)c4c3O)c(C)c2)ccc1/N=N/c1ccc2c(S(=O)(=O)O)cc(S(=O)(=O)O)c(N)c2c1O [Evans blue],"dye perfusion into tumour, no vacuum","15 mins after injection into blood supply, tumour excised and dissected",only the periphery has absorbed the dye
same,"dye perfusion into tumour, with vacuum",vacuum applied to the tumour for 1 minute at 200 mmHg of negative pressure,Deep permeation of the dye is achieved throughout the tumour tissue
